PMC9743093 (Journal of Medicinal Chemistry, 2022)
pKd: −log10 of the molar value. Where a SMILES comes first, the peptide text is derived from it. The star is where a group is joined. Cbz = O=C(OCc1ccccc1)*

Key:
IDO1 [1] = biological target: T1, IDO1 (Homo sapiens, UniProt P14902); assay: IDO1 degradation by western blot in IFNγ-stimulated U87 cells; details: for effect of co-treatment on NU223612-induced IDO1 degradation: combined with NU223612; for effect on IDO1 protein levels: U87 and GBM43 GBM cells in vitro, western blot
T1 sequence (P14902 whole entry): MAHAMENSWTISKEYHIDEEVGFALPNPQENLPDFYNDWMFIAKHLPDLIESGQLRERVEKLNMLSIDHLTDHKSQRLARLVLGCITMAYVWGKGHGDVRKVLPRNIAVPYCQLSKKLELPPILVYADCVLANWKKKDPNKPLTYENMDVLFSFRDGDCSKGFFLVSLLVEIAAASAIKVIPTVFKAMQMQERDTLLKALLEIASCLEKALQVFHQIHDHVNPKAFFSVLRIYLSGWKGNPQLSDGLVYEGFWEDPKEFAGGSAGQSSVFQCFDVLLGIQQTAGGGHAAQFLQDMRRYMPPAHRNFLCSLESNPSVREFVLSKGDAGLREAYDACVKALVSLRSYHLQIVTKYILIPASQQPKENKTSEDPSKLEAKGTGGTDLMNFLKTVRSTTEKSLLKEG

IDO1 [2] = biological target: T1, IDO1; assay: BLI binding of compounds to immobilized IDO1
TDO2 = TDO2 (Homo sapiens, UniProt P48775); assay: TDO2 western blot in U87 cells; assay type: cell-based; details: 24 h
Chain of TDO2 (P48775 whole entry): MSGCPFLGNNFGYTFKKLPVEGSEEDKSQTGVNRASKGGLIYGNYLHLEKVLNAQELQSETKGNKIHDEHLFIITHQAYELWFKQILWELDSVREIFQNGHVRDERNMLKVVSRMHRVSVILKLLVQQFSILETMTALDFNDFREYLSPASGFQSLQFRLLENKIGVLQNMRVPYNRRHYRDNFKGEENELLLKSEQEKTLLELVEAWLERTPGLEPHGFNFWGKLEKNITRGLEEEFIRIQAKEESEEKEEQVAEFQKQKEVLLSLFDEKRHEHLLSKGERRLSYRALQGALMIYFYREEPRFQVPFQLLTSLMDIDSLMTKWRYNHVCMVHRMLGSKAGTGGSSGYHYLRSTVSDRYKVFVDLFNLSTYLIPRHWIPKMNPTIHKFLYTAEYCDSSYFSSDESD

[3] = Pharmacokinetics in C57BL/6 mice; assay type: in vivo; details: mouse, single 25 mg/kg ip.
IDO1 [4] = biological target: T1, IDO1; assay: IDO1 degradation by western blot in patient PBMCs; assay type: cell-based; details: GBM patient-isolated PBMCs, 50 ng/mL IFNγ
IDO1 [5] = assay: IDO1 degradation by western blot in further cancer cell lines; assay type: cell-based, human; details: CD18, PANC-1, OVCAR5, SKOV3, PC3, GL261 IDO1-O/E; 24 h
IDO1 [6] = biological target: IDO1 (Mus musculus, UniProt P28776); assay: Pharmacodynamics: IDO1 western blot of intracranial GL261 mIDO1 tumors; details: GL261 mIDO1 cDNA tumors, single 25 mg/kg ip.
Chain of IDO1 (Mus musculus, UniProt P28776) (P28776 whole entry): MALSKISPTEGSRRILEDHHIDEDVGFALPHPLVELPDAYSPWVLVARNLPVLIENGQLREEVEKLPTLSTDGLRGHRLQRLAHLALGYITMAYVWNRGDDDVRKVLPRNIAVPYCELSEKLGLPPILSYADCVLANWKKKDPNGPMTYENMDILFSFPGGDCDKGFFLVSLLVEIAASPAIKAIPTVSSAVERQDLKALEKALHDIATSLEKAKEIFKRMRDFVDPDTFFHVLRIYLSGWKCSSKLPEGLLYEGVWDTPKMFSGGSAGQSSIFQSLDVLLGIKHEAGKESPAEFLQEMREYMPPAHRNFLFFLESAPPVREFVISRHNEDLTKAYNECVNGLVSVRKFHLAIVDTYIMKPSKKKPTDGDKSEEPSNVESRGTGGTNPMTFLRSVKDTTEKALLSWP

GL261-luc. cells = assay: Survival of mice with intracranial GL261-luc. tumors; assay type: in vivo, C57BL/6 mice; details: 25 mg/kg once per day Monday-Friday up to 3 weeks, from day 14 post-injection
[7] = biological target: NU223612/IDO1/CRBN ternary complex (Homo sapiens, UniProt P14902+Q96SW2); assay: BLI of NU223612 pre-incubated with CRBN binding to IDO1
Chain of NU223612/IDO1/CRBN ternary complex (P14902 whole entry): as the sequence (P14902 whole entry) above
Chain of NU223612/IDO1/CRBN ternary complex (Q96SW2 whole entry): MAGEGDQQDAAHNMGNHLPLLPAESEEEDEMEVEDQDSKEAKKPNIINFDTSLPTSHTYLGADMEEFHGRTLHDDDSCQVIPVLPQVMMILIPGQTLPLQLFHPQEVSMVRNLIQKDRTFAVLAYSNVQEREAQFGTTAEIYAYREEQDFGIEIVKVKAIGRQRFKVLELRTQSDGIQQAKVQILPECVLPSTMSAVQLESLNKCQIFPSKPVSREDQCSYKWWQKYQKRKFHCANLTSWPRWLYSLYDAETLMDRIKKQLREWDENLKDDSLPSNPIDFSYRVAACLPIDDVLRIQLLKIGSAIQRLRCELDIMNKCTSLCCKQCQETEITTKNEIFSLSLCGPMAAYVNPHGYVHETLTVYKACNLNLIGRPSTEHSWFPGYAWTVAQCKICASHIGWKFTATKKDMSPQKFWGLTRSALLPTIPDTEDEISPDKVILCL

IDO1 [8] = biological target: T1, IDO1; assay: IDO1 ubiquitination assay in U87 IDO1-FLAG cDNA-expressing cells; assay type: cell-based; details: immunoprecipitation, vs DMSO
IDO2 = assay: IDO1/IDO2 mRNA expression in GL261 cells; assay type: cell-based, mouse; details: 10 µM, 24 hours
[9] = system: NF-κB p65 phosphorylation; assay: NF-κB p65 phosphorylation by western blot; assay type: cell-based, human; details: IFNγ-stimulated U87, GBM43 or MDA-MB-231 cells
[10] = In vivo toxicity in C57BL/6 mice
[11] = system: NF-κB p65 DNA binding activity; assay: NF-κB; assay type: cell-based, human; details: U87 nuclear extracts, 10 μM
IDO1 enzyme activity = IDO1 enzyme activity (Homo sapiens, UniProt P14902); assay: Kynurenine assay; assay type: cell-based; details: IFNγ-stimulated GBM cells (U87, GBM43), 24 h
Chain of IDO1 enzyme activity (P14902 whole entry): as the sequence (P14902 whole entry) above

IDO1 [12] = biological target: T1, IDO1; assay: IDO1 degradation by western blot in IFNγ-stimulated GBM43 cells; details: 24 h, 0.01-30 μM, n = 3
CRBN = CRBN (Homo sapiens, UniProt Q96SW2); assay: BLI binding of compounds to immobilized CRBN; details: steady-state, 30 °C, PBS with 0.5% DMSO
Chain of CRBN (Q96SW2 whole entry): as the sequence (Q96SW2 whole entry) above

In the case of `CC(C)C[C@@H](C=O)NC(=O)[C@H](CC(C)C)NC(=O)[C@H](CC(C)C)NC(=O)OCc1ccccc1` [MG132, reference compound] (Cbz-Leu-Leu-Leu-aldehyde), the “effect of co-treatment on NU223612-induced IDO1 degradation” value (shortened to “effect of co-treatment”) (IDO1 [1]; U87 cells) was “ablation of IDO1-PROTAC-mediated IDO1 protein degradation”.
For `NS(=O)(=O)OC[C@@H]1C[C@@H](n2ccc3c(N[C@H]4CCc5ccccc54)ncnc32)C[C@@H]1O` [MLN4924, reference compound], the “effect of co-treatment” value (IDO1 [1]; U87 cells) was “ablation of IDO1-PROTAC-mediated IDO1 protein degradation”.
In the case of `C[C@@H](C(=O)Nc1ccc(OC2CCN(C(=O)CCOCCOCCNc3cccc4c3C(=O)N(C3CCC(=O)NC3=O)C4=O)CC2)cc1)[C@H]1CC[C@@H](c2ccnc3ccc(F)cc32)CC1` (stereo partly drawn) [NU223612, (2R)-N-(4-((1-(3-(2-(2-((2-(2,6-Dioxopiperidin-3-yl)-1,3-dioxoisoindolin-4-Yl)amino)ethoxy)ethoxy)propanoyl)piperidin-4-yl)oxy)phenyl)-2-((1S,4S)-4-(6-fluoroquinolin-4-yl)cyclohexyl)propenamide], the koff (IDO1 [2]; read-out: koff, NU223612/IDO1 binary complex) was 0.042 s⁻¹, the kon (IDO1 [2]; read-out: kon, NU223612/IDO1 binary complex) was 68900 M⁻¹ s⁻¹ and the “effect on IDO1 protein levels” value (IDO1 [1]) was “decreases IDO1 protein levels dose-dependently”. The “degradation of catalytically inactive mutant IDO1” value (IDO1 [1]; U87 cells transfected with enzyme-null IDO1 cDNA, 24 h) was “facilitated protein degradation of IDO1 enzyme-dead protein”, the “IDO1 protein degradation at 100 nM” value (IDO1 [1]; U87 cells, 100 nM, 24 h) was “significant IDO1 protein degradation” and the “duration of IDO1 degradation after a single continuous treatment” value (IDO1 [1]; U87 cells, 1 and 10 μM) was “up to 72 h”. The DC50 (IDO1 [1]; U87 cells, IFNγ-stimulated, 24 h, 0.01-30 μM, n = 3) was 329 nM, the “effect of washout after 24 h on IDO1 degradation” value (IDO1 [1]; U87 cells, cultured without compound up to 48 h) was “did not affect the degradation of IDO1 protein” and the “nuclear and cytoplasmic IDO1 degradation” value (IDO1 [1]; U87 cells, subcellular fractions) was “equally degraded IDO1 protein levels in both the cytoplasmic and nuclear intracellular compartments”. For the same compound, the “duration of IDO1 degradation effect” value (IDO1 [1]; human GBM cells (U87, GBM43)) was “at least 96 h”, the “time at which IDO1 degradation began after treatment initiation” value (IDO1 [1]; human GBM cells (U87, GBM43)) was 16 h and the “effect on TDO2 protein levels” value (TDO2) was “did not decrease TDO2 protein levels”. The “Cmax, brain” value [3] was 2000 nM, the “IDO1 degradation in PBMCs” value (IDO1 [4]) was “degrades IDO1 protein” and the “IDO1 degradation in other cancer cell types” value (IDO1 [5]) was “dose-dependently degrades IDO1 in all of the human cancer cell types that were analyzed”. The “time IDO1 protein remains low in intracranial tumors” value (IDO1 [6]) was “up to 24 h”, the “decrease of IDO1 protein in intracranial tumors” value (IDO1 [6]; within 2 h post-treatment) was > 70% and the “longer-term survival post-tumor cell injection” value (GL261-luc. cells) was “up to 45 days”. For the same compound, the pKd [7] was 6.93, the “cooperativity α = Kd binary/Kd ternary” value [7] was 2.5 and the koff ([7]; read-out: koff, ternary NU223612/CRBN/IDO1 complex) was 0.0015 s⁻¹. The kon ([7]; read-out: kon, ternary NU223612/CRBN/IDO1 complex) was 12800 M⁻¹ s⁻¹, the “ubiquitination of IDO1” value (IDO1 [8]) was “causes monoubiquitination of IDO1” and the “IDO2 (and IDO1) mRNA expression levels” value (IDO2) was “no significant NU223612 effects on glioma cell IDO2 expression levels”. For the same compound, the p65 phosphorylation [9] was “decreases p65 phosphorylation”, the mortality ([10]; 100 mg/kg ip. 5 days/week for 3 weeks) was “increased mortality” and the “precipitation of compound in the abdomen” value ([10]; 50 and 100 mg/kg doses ip.) was “precipitation of NU223612 observed around the intestines, liver, and pancreas”. For the same compound, the “accumulation in serum and brain tissue” value ([10]; after 3 weeks ip., mice without brain tumors, mass spectrometry) was “dose-dependent accumulation of NU223612 in serum and brain tissue”, the body-weight changes ([10]; ip. 5 days/week for 3 weeks, 10, 25, 50 or 100 mg/kg) was “did not result in significant body-weight changes at any dose” and the “NF-κB p65 transcription factor DNA binding activity” value [11] was “inhibits both IDO1-mediated tryptophan metabolism as well as IDO1 non-enzyme-mediated NF-κB p65 transcription factor DNA binding activity”. The “IDO1 enzyme activity (Kyn levels)” value (IDO1 enzyme activity) was “dose-dependently inhibits IDO1 enzyme activity” and the DC50 (IDO1 [12]) was 544 nM.
For `C[C@@H](C(=O)Nc1ccc(Cl)cc1)[C@H]1CC[C@@H](c2ccnc3ccc(F)cc32)CC1` [NU223618, reference compound], the p65 phosphorylation [9] was “neither NU226211 nor NU223618 inhibits NF-κB phosphorylation”.
In the case of `C[C@@H](C(=O)Nc1ccc(OC2CCN(C(=O)CCOCCOCCNc3cccc4c3C(=O)N(C3CCC(=O)N(C)C3=O)C4=O)CC2)cc1)[C@H]1CC[C@@H](c2ccnc3ccc(F)cc32)CC1` (stereo partly drawn) [NU226211, (2R)-2-((1S,4S)-4-(6-Fluoroquinolin-4-yl)cyclohexyl)-N-(4-((1-(3-(2-(2-((2-(1-methyl-2,6-dioxopiperidin-3-yl)-1,3-dioxoisoindolin-4-yl)amino)ethoxy)ethoxy)propanoyl)piperidin-4-yl)oxy)phenyl)propenamide], the “effect on IDO1 protein levels” value (IDO1 [1]) was “neither NU226211 nor NU223618 decreases IDO1 protein levels”, the “ubiquitination of IDO1” value (IDO1 [8]) was “neither NU226211 nor NU223618 mediated the ubiquitination” and the p65 phosphorylation [9] was “neither NU226211 nor NU223618 inhibits NF-κB phosphorylation”. For the same compound, the “binding affinity (Kd) to CRBN” value (CRBN) was “no measurable binding”.
For `Nc1cccc2c1C(=O)N(C1CCC(=O)NC1=O)C2=O` (stereo not shown) [pomalidomide, reference compound], the “effect of co-treatment” value (IDO1 [1]; U87 cells) was “ablation of IDO1-PROTAC-mediated IDO1 protein degradation”.
